The record followed here is ChEMBL document CHEMBL5523691, “SAR study of N'-(Salicylidene)heteroarenecarbohydrazides as promising antifungal agents” (Bioorg Med Chem, 2024).

Converted amounts (≈) assume the structure as drawn. The source made the active and inactive calls. The calls are words filed in the database; no cut-off is given here. A value given as a limit tells only on which side of the number the result lay.

The subject of data set [1] is Cryptococcus neoformans. Put plainly: Antifungal activity against wild type Cryptococcus neoformans H99 assessed as inhibition of fungal growth incubated for 24 to 72 hrs by optical density based analysis. The class given is functional. Conditions: time 24-72 hrs.
Data set [2] is described as follows: Cytotoxicity against human A549 cells assessed as cell killing measured after 24 to 48 hrs by MTT assay. It counts as toxicity, cell-based. Conditions: time 24-48 hrs, read-out: LD50 (the source's name). Background: Tetrazolium dyes change colour on reduction, which living cells bring about.
The subject of data set [3] is Cryptococcus neoformans. Put plainly: Fungicidal activity against wild type Cryptococcus neoformans H99 assessed as minimum concentration required to kill fungus measured after 12 hrs by time-kill assay. The class given is functional.
The nature of data set [4]: Selectivity index, ratio of LD50 for human A549 cells to MIC80 for Cryptococcus neoformans H99. The class given is toxicity. Particulars: read-out: Selectivity Index.
Another data set relates to Aspergillus fumigatus. Put plainly: Antifungal activity against Aspergillus fumigatus assessed as inhibition of fungal growth incubated for 24 to 72 hrs by optical density based analysis. It counts as functional. Particulars: time 24-72 hrs.
Data set [5] concerns Cryptococcus neoformans. Put plainly: Fungicidal activity against wild type Cryptococcus neoformans H99 assessed as minimum concentration required to kill fungus measured after 48 hrs by time-kill assay. It counts as functional.
Data set [6] deals with Cryptococcus neoformans. Nature of the data set: Fungistatic activity against wild type Cryptococcus neoformans H99 assessed as inhibition of fungal growth incubated for 12 to 48 hrs by time-kill assay. It counts as functional, organism-based. Particulars: time 12-48 hrs.
In data set [7] the test system is Cryptococcus neoformans. Nature of the data set: Fungicidal activity against wild type Cryptococcus neoformans H99 assessed as minimum concentration required to kill fungus measured after 24 hrs by time-kill assay. It counts as functional.

Usually MIC80 stands for an inhibitory concentration at the 80% level, which refers to growth in some studies and to a panel of isolates in others. In the case of `O=C(N/N=C/c1cc(Br)cc(Br)c1O)c1cc(Br)c[nH]1`, the MIC80 in the data set on Cryptococcus neoformans [1] worked out at 4 µg/mL (≈ 8.59 µM).

`O=C(N/N=C/c1cc(Br)cc(Br)c1O)c1cc(Br)c(Br)s1`: the CC50 in data set [2] was above 32 µg/mL. The MFC100 in the data set with Cryptococcus neoformans [3] was found to be 1 µg/mL (≈ 1.78 µM). For the same compound, the selectivity ratio in data set [4] is above 32. The MIC80 in the data set with Cryptococcus neoformans [1] was 1 µg/mL (≈ 1.78 µM).

For the compound `Cc1ccc2c(C)c(C(=O)N/N=C/c3cc(Br)cc(Br)c3O)oc2c1`, the MIC80 with Cryptococcus neoformans [1] is above 16 µg/mL.

With `O=C(N/N=C/c1cc(Br)ccc1O)c1cc2cc(Br)ccc2o1`, the MIC80 in the data set with Cryptococcus neoformans [1] was above 16 µg/mL.

Consider `C[C@@H](c1ncncc1F)[C@](O)(Cn1cncn1)c1ccc(F)cc1F` [VORICONAZOLE], for which, in the data set with Aspergillus fumigatus, the MIC80 stood at 0.125 µg/mL (≈ 0.358 µM).

Consider `O=C(N/N=C/c1cc(Br)ccc1O)c1cc2ccccc2cn1`, for which the MIC80 with Cryptococcus neoformans [1] is above 16 µg/mL.

With `O=C(N/N=C/c1cc(Br)cc(Br)c1O)c1cc2cc(Br)ccc2o1`, the MIC80 with Cryptococcus neoformans [1] was above 16 µg/mL.

As for `O=C(N/N=C/c1cc(Br)cc(Br)c1O)c1ccc[nH]1`, the MIC80 with Cryptococcus neoformans [1] turned out to be 2 µg/mL (≈ 5.17 µM).

With `O=C(N/N=C/c1c(O)ccc2ccccc12)c1cncc(Br)c1`, the CC50 in data set [2] was 2 µg/mL (≈ 5.4 µM). Besides, the MFC100 in the data set with Cryptococcus neoformans [5] came to 2 µg/mL (≈ 5.4 µM). Moreover, the selectivity ratio in data set [4] came out at 8. In addition, in the data set with Cryptococcus neoformans [1], the MIC80 worked out at 0.25 µg/mL (≈ 0.675 µM).

As to `O=C(N/N=C/c1c(O)ccc2ccccc12)c1ccco1`, in the data set with Cryptococcus neoformans [1], the MIC80 is above 16 µg/mL.

Turning to `O=C(N/N=C/c1ccc(Br)cc1O)c1cc[nH]c1`, the MIC80 in the data set on Cryptococcus neoformans [1] was 4 µg/mL (≈ 13 µM).

For `O=C(N/N=C/c1c(O)ccc2ccccc12)c1cc(Br)c(Br)s1`, in the data set with Cryptococcus neoformans [1], the MIC80 was determined as 16 µg/mL (≈ 35.2 µM).

In the case of `O=C(N/N=C/c1c(O)ccc2ccccc12)c1csc(Br)c1`, the CC50 in data set [2] is above 32 µg/mL. In the data set with Cryptococcus neoformans [5], the MFC100 came out at 0.25 µg/mL (≈ 0.666 µM). In data set [4], the selectivity ratio is above 128. The MIC80 with Cryptococcus neoformans [1] was 0.25 µg/mL (≈ 0.666 µM).

For `O=C(N/N=C/c1ccc(Br)cc1O)c1cc[nH]n1`, the MIC80 in the data set on Cryptococcus neoformans [1] came to 2 µg/mL (≈ 6.47 µM).

Take `O=C(N/N=C/c1cc(Br)ccc1O)c1cc(Br)c(Br)o1`: the CC50 in data set [2] turned out to be 32 µg/mL (≈ 68.5 µM). For the same compound, the MFC100 with Cryptococcus neoformans [5] was determined as 0.5 µg/mL (≈ 1.07 µM). Further, the MIC80 in the data set with Cryptococcus neoformans [1] is 0.25 µg/mL (≈ 0.535 µM).

For the compound `O=C(N/N=C/c1ccc(Br)cc1O)c1cc(Br)c[nH]1`, the MIC80 with Cryptococcus neoformans [1] amounted to 8 µg/mL (≈ 20.7 µM).

For the compound `O=C(N/N=C/c1cc(Br)cc(Br)c1O)c1ccc(Br)o1`, in data set [2], the CC50 is 16 µg/mL (≈ 34.3 µM). Further, the result in the data set on Cryptococcus neoformans [6] was Active. Further, the selectivity ratio in data set [4] worked out at 267. In addition, in the data set with Cryptococcus neoformans [1], the MIC80 was 0.06 µg/mL (≈ 0.129 µM).

`O=C(N/N=C/c1ccc(Br)cc1O)c1ccc[nH]1`: in the data set on Cryptococcus neoformans [1], the MIC80 was determined as 2 µg/mL (≈ 6.49 µM).

Regarding `O=C(N/N=C/c1ccc(Br)cc1O)c1csc(Br)c1`, in the data set with Cryptococcus neoformans [7], the MFC100 is 0.5 µg/mL (≈ 1.24 µM). In addition, the CC50 in data set [2] was above 32 µg/mL. Besides, the selectivity ratio in data set [4] is above 128. Further, the MIC80 in the data set with Cryptococcus neoformans [1] worked out at 0.25 µg/mL (≈ 0.619 µM).

Turning to `O=C(N/N=C/c1cc(Br)ccc1O)c1ccc[nH]1`, in the data set on Cryptococcus neoformans [1], the MIC80 was determined as 16 µg/mL (≈ 51.9 µM).

Take `O=C(N/N=C/c1c(O)ccc2ccccc12)c1cc[nH]c1`: the MIC80 in the data set with Cryptococcus neoformans [1] was above 16 µg/mL.

For the compound `O=C(N/N=C/c1ccc(Br)cc1O)c1ncc(Br)cn1`, in the data set with Cryptococcus neoformans [1], the MIC80 was above 16 µg/mL.

As for `O=C(N/N=C/c1ccc(Br)cc1O)c1ccco1`, in the data set on Cryptococcus neoformans [1], the MIC80 was determined as 2 µg/mL (≈ 6.47 µM).

As to `O=C(N/N=C/c1cc(Br)cc(Br)c1O)c1csc2ccccc12`, the MIC80 in the data set on Cryptococcus neoformans [1] was above 16 µg/mL.

For `O=C(N/N=C/c1c(O)ccc2ccccc12)c1cc(Br)co1`, the MIC80 in the data set on Cryptococcus neoformans [1] is above 16 µg/mL.

As for `O=C(N/N=C/c1c(O)ccc2ccccc12)c1cc[nH]n1`, the MIC80 with Cryptococcus neoformans [1] was found to be 4 µg/mL (≈ 14.3 µM).

On to `O=C(N/N=C/c1cc(Br)cc(Br)c1O)c1ccco1`, for which, in the data set on Cryptococcus neoformans [1], the MIC80 was 8 µg/mL (≈ 20.6 µM).

For the compound `O=C(N/N=C/c1cc(Br)ccc1O)c1cc[nH]c1`, the MIC80 in the data set with Cryptococcus neoformans [1] was 4 µg/mL (≈ 13 µM).

With `O=C(N/N=C/c1cc(Br)ccc1O)c1cncc(Br)c1`, the CC50 in data set [2] is 4 µg/mL (≈ 10 µM). In addition, the result in the data set on Cryptococcus neoformans [6] was Active. Also, the selectivity ratio in data set [4] worked out at 4. Moreover, in the data set with Cryptococcus neoformans [1], the MIC80 was 1 µg/mL (≈ 2.51 µM).

In the case of `O=C(N/N=C/c1cc(Br)cc(Br)c1O)c1ccc(C(F)(F)F)o1`, the MIC80 in the data set on Cryptococcus neoformans [1] is 2 µg/mL (≈ 4.39 µM).

As for `O=C(N/N=C/c1cc(Br)ccc1O)c1ccco1`, in the data set on Cryptococcus neoformans [1], the MIC80 was 2 µg/mL (≈ 6.47 µM).

Turning to `O=C(N/N=C/c1ccc(Br)cc1O)c1cncc(Br)c1`, the CC50 in data set [2] was above 32 µg/mL. In addition, the result in the data set with Cryptococcus neoformans [6] was Active. The selectivity ratio in data set [4] is 64. In addition, in the data set on Cryptococcus neoformans [1], the MIC80 amounted to 1 µg/mL (≈ 2.51 µM).

On to `O=C(N/N=C/c1cc(Br)cc(Br)c1O)c1cccs1`, for which the MIC80 in the data set on Cryptococcus neoformans [1] turned out to be 4 µg/mL (≈ 9.9 µM).
